Assay results as given in patent US20250179057A1, “MEK IMMUNE ONCOLOGY INHIBITORS AND THERAPEUTIC USES THEREOF” (Immuneering Corporation, priority 2022, published 2025).
Where a name gives a salt, the structure may show the parent alone. Read-outs that look alike come from different tables or passages of the source. One block for each compound: values may come before it.

Columns and labels:
[1] = eLogD (lipophilicity; pH 7.4) by HPLC; format: physicochemical
Description: Test compounds were dissolved in DMSO at a concentration of 10 mM and further diluted with methanol:water 1:1. Samples were analyzed using gradient HPLC with three different isocratic mobile phases of 0.25% octanol in methanol (60, 65 and 70%) and 20 mM MOPS buffer (pH 7.4) with decylamine. If needed, (for low E log Doct compounds) the isocratic mobile phases were adjusted to e.g. 40, 45 and 50% methanol. Peaks were detected using a diode array at absorbance 220-320 nm.
Capacity factors data (k′_=(tr−_t0)/t0) obtained at various amounts of methanol were extrapolated to 0% methanol and k′w values are determined using a linear procedure. E log Doct (7.4) is calculated using a series of reference standards with known Log D values. Each experiment was performed in triplicate.

[2] = test system: phospho-ERK in A375 cells; experiment: Cell-based pERK (pERK:tERK) in A375 cells; details: for pERK/tERK ratio normalized to DMSO: A375 (BRAF p.V600E), 100 nM
Description: Materials and Methods: A549 or A375 cells were seeded in 6-well plates at an appropriate seeding density on day 0. On day 2 or 3, after checking the health and confluency of cells, the media was aspirated and replaced with 1 mL media containing a predetermined concentration of compound and incubated for 2 hours. After 2 hours, the media was aspirated, and the cells washed 2 times with cold PBS. Cells were lysed on ice, with 50 uL 1×CST lysis buffer +1 mM PMSF for 5 minutes. After 5 minutes, cells were removed using a scraper and transferred to cold 1.5 mL tubes, and centrifuged for 10 min, 4° C., 14,000×g. Supernatant was gently removed and snap frozen in liquid nitrogen. Protein concentration of the lysate was determined using Bradford Reagent (analyzed using SpectraMax M2E) and diluted to 1 mg/mL or pERK or 1.5 mg/mL for pMEK analysis. […] All dilutions were in Milk-free antibody diluent.
A549 or […] cells were treated in duplicate for two hours with compounds at varying concentrations. After two hours, the cells were lysed, snap frozen, and stored at −80° C. After storage, the lysate was quantified with the Bradford assay. Before the lysates were prepared to run on the Jess, the lysates were diluted to 1 mg/mL for pERK analysis and 1.5 mg/mL pMEK analysis using quantitative Western blotting. ERK and MEK phosphorylation levels were estimated by taking the ratio of phospho-protein to total protein and normalizing to the DMSO control.
(§1) The nine models are described in Table 16.

CYP2C8 = biological target: T1, CYP2C8 (Homo sapiens, UniProt P10632); experiment: in vitro; details: microsomes, pH 7.4
T1 sequence (P10632 1-490): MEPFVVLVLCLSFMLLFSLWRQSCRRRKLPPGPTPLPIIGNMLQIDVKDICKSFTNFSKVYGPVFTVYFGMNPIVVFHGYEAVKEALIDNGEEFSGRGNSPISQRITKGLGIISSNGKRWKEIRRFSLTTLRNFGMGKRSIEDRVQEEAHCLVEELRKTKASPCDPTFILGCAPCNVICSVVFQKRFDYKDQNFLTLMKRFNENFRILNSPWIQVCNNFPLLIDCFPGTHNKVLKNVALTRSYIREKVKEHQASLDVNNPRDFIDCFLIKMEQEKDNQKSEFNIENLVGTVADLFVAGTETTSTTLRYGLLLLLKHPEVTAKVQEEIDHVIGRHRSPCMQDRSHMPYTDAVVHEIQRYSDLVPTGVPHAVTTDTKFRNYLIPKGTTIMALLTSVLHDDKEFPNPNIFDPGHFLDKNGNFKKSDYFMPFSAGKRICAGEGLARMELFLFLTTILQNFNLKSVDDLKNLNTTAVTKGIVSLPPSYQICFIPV

[3] = test system: phospho-ERK in MEL-JUSO cells; experiment: pERK/tERK ratio in MEL-JUSO melanoma model; format: cell-based; details: MEL-JUSO (HRAS p.G13D, NRAS p.Q61L); 100 nM
Description: (§2) Compound (drug) treatment: Cells were plated in a 6-well plate at a density of 250,000-300,000 cells/well in 3 mL media and incubated 37° C. in a humidified, 5% CO2 incubator. […] These solutions were added to the cells (3 uL/well), mixed by swirling the plate, and incubated at 37° C. in a humidified, 5% CO2 incubator for 2 hours.
(§3) Cell lysis and protein estimation: Cells were washed with PBS, and scraped in 50 μL of lysis buffer containing protease and phosphatase inhibitors. Cell lysates were stored at −20° C. Cell lysates were thawed and spun at 12,000 rpm for one minute, 3 ul of the supernatant was added to 500 μL of Coomassie blue reagent following by 500 μL of water. […] Protein standards were used (0-20 mg/mL) to calculate protein concentrations of test samples.
(§4) All samples were heated at 95° C. for 5 minutes, cooled to room temperature and spun down. […] After the run, gel was removed and protein transfer was done using iBlot for 7 minutes, as per manufacturer's recommendations. After the transfer, nitrocellulose membrane was incubated on a shaker in 5 mL of blocking buffer at room temperature for 1 hr. The blot was then incubated overnight on a shaker in 5 ml of blocking buffer containing 0.2% Tween-20 and primary antibody, at room temperature. Anti-phospho-STAT3 antibody was used at a dilution of 1:500, the other 3 primary antibodies were used at a dilution of 1:1000.
(§5) Next day, the blot was washed 3 times for 10 min each with 10 mL of TBST followed by incubation on a shaker in 5 ml of blocking buffer containing 0.2% Tween-20 and 0.5 ul of the IRDye labeled secondary antibodies, diluted 1:10000, at room temperature for 1 hr. The blot was then washed 3 times for 10 min each with 10 mL of TBST and dried between sheets of paper towels. Imaging was done using LICOR's Odyssey imaging system, quantitation was done using their software, Image Studio version 3.1.
as §1

[4] = test system: phospho-MEK in SK-MEL-30 cells; experiment: pMEK/tMEK ratio in SK-MEL-30 melanoma model; format: cell-based
Description: as §2, §3, §4, §5, §1

[5] = test system: phospho-MEK in Hs852.T cells; experiment: pMEK/tMEK ratio in Hs852.T melanoma model; format: cell-based; details: Hs852.T (NRAS p.G12V); 100 nM
Description: as §2, §3, §4, §5, §1

[6] = test system: phospho-ERK in MeWo cells; experiment: pERK/tERK ratio in MeWo melanoma model; format: cell-based; details: MeWo (NF1 LoF); 100 nM
Description: as §2, §3, §4, §5, §1

[7] = test system: phospho-MEK in MM415 cells; experiment: pMEK/tMEK ratio in MM415 melanoma model; format: cell-based
Description: as §2, §3, §4, §5, §1

[8] = test system: phospho-ERK in Hs852.T cells; experiment: pERK/tERK ratio in Hs852.T melanoma model; format: cell-based; details: Hs852.T (NRAS p.G12V); 100 nM
Description: as §2, §3, §4, §5, §1

SMILES: CNS(=O)(=O)Nc1cccc(Cc2c(CN(C)C)c3ccc(OC(=O)N(C)C)cc3oc2=O)c1F [Compound 9]
eLogD (lipophilicity; pH = 7.4) [1]: 3.0 | A375 pERK:tERK ratio [10 nM; 2 hr] [2]: 0.71

SMILES: CCN(C)Cc1c(Cc2cccc(NS(=O)(=O)NC)c2Cl)c(=O)oc2cc(OC(=O)N(C)C)ccc12 [Compound 245, 3-(2-chloro-3-((N-methylsulfamoyl)amino)benzyl)-4-((ethyl(methyl)amino)methyl)-2-oxo-2H-chromen-7-yl dimethylcarbamate]
inhibition at 30 min, 10 µM (CYP2C8): 30.4%

SMILES: CNS(=O)(=O)Nc1cccc(Cc2c(CN3CCNCC3)c3ccc(OC(=O)N(C)C)cc3oc2=O)c1Cl [Compound 246, 3-(2-chloro-3-((N-methylsulfamoyl)amino)benzyl)-2-oxo-4-(piperazin-1-ylmethyl)-2H-chromen-7-yl dimethylcarbamate hydrochloride]
inhibition at 30 min, 10 µM (CYP2C8): 10.5%

SMILES: CNS(=O)(=O)Nc1cccc(Cc2c(CN3CCNCC3)c3cc(Cl)c(OC(=O)N(C)C)cc3oc2=O)c1Cl [Compound 256, 6-chloro-3-(2-chloro-3-((N-methylsulfamoyl)amino)benzyl)-2-oxo-4-(piperazin-1-ylmethyl)-2H-chromen-7-yl dimethylcarbamate hydrochloride]
inhibition at 30 min, 10 µM (CYP2C8): 97%

SMILES: CCS(=O)(=O)Nc1cccc(Cc2c(CN3CCNCC3)c3cc(Cl)c(OC(=O)N(C)C)cc3oc2=O)c1Cl [Compound 257, 6-chloro-3-(2-chloro-3-(ethylsulfonamido)benzyl)-2-oxo-4-(piperazin-1-ylmethyl)-2H-chromen-7-yl dimethylcarbamate hydrochloride]
inhibition at 30 min, 10 µM (CYP2C8): 97.5%

SMILES: CNS(=O)(=O)Nc1cccc(Cc2c(CN(C)C)c3ccc(OC(=O)N(C)C)cc3oc2=O)c1Cl [Compound 274, 3-(2-chloro-3-((N-methylsulfamoyl)amino)benzyl)-4-((dimethylamino)methyl)-2-oxo-2H-chromen-7-yl dimethylcarbamate]
pERK/tERK ratio normalized to DMSO [3]: 0.631 | pMEK/tMEK ratio normalized to DMSO ([4]; SK-MEL-30 (NRAS p.Q61K), 100 nM): 0.609 | pMEK/tMEK ratio normalized to DMSO [5]: 0.672 | pERK/tERK ratio normalized to DMSO [2]: 0.477 | pERK/tERK ratio normalized to DMSO [6]: 0.519 | pMEK/tMEK ratio normalized to DMSO ([7]; MM415 (NRAS p.Q61L), 100 nM): 0.58 | inhibition at 30 min, 10 µM (CYP2C8): 11.9% | pERK/tERK ratio normalized to DMSO [8]: 0.731

SMILES: Cn1cnc2c(F)c(Nc3ccc(Br)cc3Cl)c(C(=O)NOCCO)cc21 [Reference-1, Selumetinib]
chromatographic logD [1]: 3.6 | pERK/tERK ratio normalized to DMSO [3]: 0.179 | pMEK/tMEK ratio normalized to DMSO [4]: 2.177 | pMEK/tMEK ratio normalized to DMSO [5]: 4.945 | A375 pERK:tERK ratio [10 nM; 2 hr] [2]: 0.59 | pERK/tERK ratio normalized to DMSO [2]: 0.199 | pERK/tERK ratio normalized to DMSO [6]: 0.196 | pMEK/tMEK ratio normalized to DMSO [7]: 2.386 | pERK/tERK ratio normalized to DMSO [8]: 0.293

chromatographic logD [1]: 3.6
SMILES: CNS(=O)(=O)Nc1nccc(Cc2c(C)c3ccc(Oc4ncccn4)cc3oc2=O)c1F [Reference-2, reference compound]
